From paper PMC3723632, “A Multi-targeted Drug Candidate with Dual Anti-HIV and Anti-HSV Activity” (PLoS Pathogens, 2013) come the findings set out here.

One test concerns the target T1, HIV-1 RT (Human immunodeficiency virus type 1 group M subtype B, UniProt P03366).
T1 construct: 4 µl of recombinant HIV-1 RT
Briefly: HIV-1 reverse transcriptase assay. The class given is biochemical. Particulars: poly rU.dA primer/template. Here is the method: […] In the HSV DNA polymerase assays, the inhibitory effect of adefovir-pp or PMEA-DAPym-pp on herpesvirus DNA polymerase-catalyzed polymerization was also determined in the presence of radiolabeled [^3H]dGTP (1 mCi/ml; 2.8 µM), [^3H]dTTP (1 mCi/ml; 1 µM), or [^3H]dCTP (1 mCi/ml; 2.5 µM) as competing dNTP in the presence of 0.8 µl (5 mM) of the other dNTPs in the reaction mixture as described above. The reaction was started by the addition of 4 µl of recombinant HSV-1 DNA polymerase (kindly provided by M.W. Wathen, at that time at Pfizer, Kalamazoo, MI) or 4 µl of recombinant HIV-1 RT (in 20 mM Tris.HCl, pH 8.0; 1 mM DTT; 0.1 mM EDTA; 0.2 M NaCl; 40% glycerol), and the reaction mixture was incubated for 60 min (HSV-1 DNA polymerase) or 30 min (HIV-1 RT) at 37°C. Then, 1 ml of ice-cold 5% TCA in 0.02 M Na4P2O7.10 H2O was added to terminate the polymerisation reaction, after which the acid-insoluble precipitate (radiolabeled DNA) was captured onto Whatman glass fiber filters (type GF/C; GE Healthcare UK Limited, Buckinghamshire, UK) and further washed with 5% TCA and ethanol to remove free radiolabeled dNTP. Radioactivity was determined in a Perkin Elmer Tri-Carb 2810 TR liquid scintillation counter.

In a further test the target is T2, HSV DNA polymerase (Human herpesvirus 1, UniProt P04293).
T2 construct: gift of M.W. Wathen (Pfizer, Kalamazoo, MI)
Put plainly: HSV DNA polymerase assay. The class given is biochemical. The method, then:
The reaction mixture (40 µl) for the HSV-1 DNA polymerase and HIV-1 RT assays contained 4 µl of Premix (200 mM Tris.HCl, pH 7.5; 2 mM DTT; 30 mM MgCl2), 4 µl of BSA (5 mg/ml), 1.6 µl of activated calf thymus DNA (1.25 mg/ml), 0.8 µl of dCTP (5 mM), 0.8 µl of dTTP (5 mM), 0.8 µl of dGTP (5 mM), 2 µl of radiolabeled [^3H]dATP (1 mCi/ml) (3.2 µM), 18 µl of H2O, and 4 µl of adefovir-pp or PMEO-DAPym-pp at different concentrations (i.e., 200, 20, 2, and 0.2 µM). In the HSV DNA polymerase assays, the inhibitory effect of adefovir-pp or PMEA-DAPym-pp on herpesvirus DNA polymerase-catalyzed polymerization was also determined in the presence of radiolabeled [^3H]dGTP (1 mCi/ml; 2.8 µM), [^3H]dTTP (1 mCi/ml; 1 µM), or [^3H]dCTP (1 mCi/ml; 2.5 µM) as competing dNTP in the presence of 0.8 µl (5 mM) of the other dNTPs in the reaction mixture as described above. The reaction was started by the addition of 4 µl of recombinant HSV-1 DNA polymerase (kindly provided by M.W. Wathen, at that time at Pfizer, Kalamazoo, MI) or 4 µl of recombinant HIV-1 RT (in 20 mM Tris.HCl, pH 8.0; 1 mM DTT; 0.1 mM EDTA; 0.2 M NaCl; 40% glycerol), and the reaction mixture was incubated for 60 min (HSV-1 DNA polymerase) or 30 min (HIV-1 RT) at 37°C. Then, 1 ml of ice-cold 5% TCA in 0.02 M Na4P2O7.10 H2O was added to terminate the polymerisation reaction, after which the acid-insoluble precipitate (radiolabeled DNA) was captured onto Whatman glass fiber filters (type GF/C; GE Healthcare UK Limited, Buckinghamshire, UK) and further washed with 5% TCA and ethanol to remove free radiolabeled dNTP. Radioactivity was determined in a Perkin Elmer Tri-Carb 2810 TR liquid scintillation counter.

Each structure is given as a SMILES string. Read-outs that look alike come from different tables or passages of the source.

T2 sequence (P04293 whole entry): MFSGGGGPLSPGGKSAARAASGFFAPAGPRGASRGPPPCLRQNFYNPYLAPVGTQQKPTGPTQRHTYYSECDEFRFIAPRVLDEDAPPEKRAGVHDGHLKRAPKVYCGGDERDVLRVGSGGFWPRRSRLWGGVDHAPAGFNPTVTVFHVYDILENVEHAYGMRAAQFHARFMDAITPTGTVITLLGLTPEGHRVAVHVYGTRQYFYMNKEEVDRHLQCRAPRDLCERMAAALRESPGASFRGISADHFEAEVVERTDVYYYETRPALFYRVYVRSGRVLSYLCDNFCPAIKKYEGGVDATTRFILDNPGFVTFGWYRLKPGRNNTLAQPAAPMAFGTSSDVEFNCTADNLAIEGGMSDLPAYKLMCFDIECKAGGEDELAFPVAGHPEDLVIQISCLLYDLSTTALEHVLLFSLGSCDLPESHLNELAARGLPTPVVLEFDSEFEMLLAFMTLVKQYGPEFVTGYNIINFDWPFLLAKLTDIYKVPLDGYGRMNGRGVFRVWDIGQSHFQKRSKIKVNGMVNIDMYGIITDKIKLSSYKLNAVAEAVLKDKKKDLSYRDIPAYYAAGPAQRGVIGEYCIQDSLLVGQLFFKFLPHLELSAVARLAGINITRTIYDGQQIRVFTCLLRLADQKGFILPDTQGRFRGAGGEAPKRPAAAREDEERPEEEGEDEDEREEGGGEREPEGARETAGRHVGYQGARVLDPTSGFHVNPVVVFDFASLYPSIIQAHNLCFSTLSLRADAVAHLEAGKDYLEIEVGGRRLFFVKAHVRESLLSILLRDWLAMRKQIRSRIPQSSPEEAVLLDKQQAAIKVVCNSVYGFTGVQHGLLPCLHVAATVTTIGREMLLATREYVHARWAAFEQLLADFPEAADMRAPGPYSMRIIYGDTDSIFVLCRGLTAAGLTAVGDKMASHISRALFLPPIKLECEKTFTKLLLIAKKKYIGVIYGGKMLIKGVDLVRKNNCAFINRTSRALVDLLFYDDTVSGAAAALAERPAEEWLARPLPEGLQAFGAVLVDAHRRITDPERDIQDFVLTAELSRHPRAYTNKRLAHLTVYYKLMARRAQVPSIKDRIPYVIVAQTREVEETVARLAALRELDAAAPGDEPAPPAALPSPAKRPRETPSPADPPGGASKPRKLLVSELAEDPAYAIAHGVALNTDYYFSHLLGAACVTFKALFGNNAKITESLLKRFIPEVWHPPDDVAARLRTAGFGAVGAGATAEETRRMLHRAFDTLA

Take `Nc1ncnc2c1ncn2CCOCP(=O)(O)OP(=O)(O)OP(=O)(O)O` [Adefovir-pp]: the IC50 on HIV-1 RT (IC50, dATP (3.2 µM) as competing substrate) is 0.923 µM; on HSV DNA polymerase ([3H]dATP as competing substrate, gapped calf thymus DNA, read-out: IC50 (converted)), 0.993 µM; at HSV DNA polymerase ([3H]dCTP as competing substrate, gapped calf thymus DNA, read-out: IC50 (converted)), 3.92 µM; at HSV DNA polymerase ([3H]dGTP as competing substrate, gapped calf thymus DNA, read-out: IC50 (converted)), 3.46 µM; at HSV DNA polymerase ([3H]dTTP as competing substrate, gapped calf thymus DNA, read-out: IC50 (converted)) it was 4.85 µM; at HSV DNA polymerase (dCTP, dGTP, dTTP, range, read-out: IC50, incorporation of other [3H]dNTPs), 3.46 to 4.85 µM.
Turning to `C[C@@H](Cn1cnc2c(N)ncnc21)OCP(=O)(O)OP(=O)(O)OP(=O)(O)O` [Tenofovir-pp], the IC50 stood at 0.43 ± 0.21 µg/mL on HIV-1 RT (dATP (3.2 µM) as competing substrate); 0.48 ± 0.04 µg/mL at HSV DNA polymerase ([3H]dATP as competing substrate, gapped calf thymus DNA); 32 ± 2.2 µg/mL at HSV DNA polymerase ([3H]dCTP as competing substrate, gapped calf thymus DNA); 8.9 ± 6.3 µg/mL at HSV DNA polymerase ([3H]dGTP as competing substrate, gapped calf thymus DNA); 11 ± 4.8 µg/mL on HSV DNA polymerase ([3H]dTTP as competing substrate, gapped calf thymus DNA). Further, on HSV DNA polymerase (dCTP, dGTP, dTTP, range), the “IC50, incorporation of other [3H]dNTPs” value is 8.9 to 32 µg/mL.
